Results published in US20230085307A1, “PYRIDAZINONE COMPOUND AND HERBICIDE” (NISSAN CHEMICAL CORPORATION, priority 2019, published 2023).

Key:
[1] = tested on: velvetleaf; assay: Test Example 5: herbicidal effect by foliage application, plastic box (Table 20, symbol M); type: in vivo, velvetleaf (Abutilon theophrasti); conditions: 320 g/ha
Summary of the method: (§1)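 Foliar spray test: emulsion formulation diluted in water to a set application rate, sprayed onto 14-day-old plants raised in diluvial soil at 25° C to 30° C under glass. Both herbicidal effect and crop effect rated visually three weeks later.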

[2] = tested on: persian speedwell; assay: Test Example 4: herbicidal effect by soil treatment (Table 19, symbol R); type: in vivo, Persian speedwell (Veronica persica); conditions: 320 g/ha
Summary of the method: (§2)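 Step 1: sow seeds in sterilized diluvial soil, cover ~1.5 cm. Step 2: spray diluted emulsion onto soil surface at predetermined rate. Step 3: greenhouse, 25–30° C, three weeks. Step 4: grade effect on each plant by earlier criteria.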

[3] = tested on: late watergrass; assay: Test Example 2: herbicidal activity, application during weed generation under submerged conditions (Table 17, symbol A); type: in vivo, late watergrass (Echinochloa oryzicola); conditions: AAH 320 g/ha; application during weed generation, submerged conditions
Summary of the method: (§3)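 Alluvial soil in Wagner pots was flooded to 4 cm depth and sown with the three weeds together; pots were kept in a greenhouse at 25° C. to 30° C. At the one to two leaf stage, an emulsion formulation diluted in water to a set rate went onto the water surface; scored three weeks later.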

[4] = tested on: southern crabgrass; assay: Test Example 5: herbicidal effect by foliage application, plastic box (Table 20, symbol F); type: in vivo, southern crabgrass (Digitaria ciliaris); conditions: 320 g/ha
Summary of the method: as §1

[5] = tested on: lambsquarters; assay: Test Example 5: herbicidal effect by foliage application, plastic box (Table 20, symbol O); type: in vivo, lambsquarters (Chenopodium album); conditions: 320 g/ha
Summary of the method: as §1

[6] = tested on: blackgrass; assay: Test Example 4: herbicidal effect by soil treatment (Table 19, symbol J); type: in vivo, blackgrass (Alopecurus myosuroides); conditions: 320 g/ha
Summary of the method: as §2

[7] = tested on: Japanese bulrush; assay: Test Example 2: herbicidal activity, application during weed generation under submerged conditions (Table 17, symbol B); type: in vivo, Japanese bulrush (Schoenoplectus juncoides); conditions: AAH 320 g/ha; application during weed generation, submerged conditions
Summary of the method: as §3

[8] = tested on: redroot pigweed; assay: Test Example 4: herbicidal effect by soil treatment (Table 19, symbol N); type: in vivo, redroot pigweed (Amaranthus retroflexus); conditions: 320 g/ha
Summary of the method: as §2

[9] = tested on: Chinese sprangletop; assay: Test Example 3: herbicidal effect by foliage application, Wagner pot (Table 18, symbol D); type: in vivo, chinese sprangletop (Leptochloa chinensis); conditions: 320 g/ha
Summary of the method: (§4)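 Plants were sown in alluvial soil held under 0.1–0.5 cm standing water and grown 14 days in a greenhouse at 25–30 °C. An emulsifiable formulation, water-diluted to the set dose, was then sprayed onto the foliage, and effects were scored three weeks later using previously defined criteria.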

[10] = tested on: chickweed; assay: Test Example 4: herbicidal effect by soil treatment (Table 19, symbol P); type: in vivo, common chickweed (Stellaria media); conditions: 320 g/ha
Summary of the method: as §2

[11] = tested on: blackgrass; assay: Test Example 5: herbicidal effect by foliage application, plastic box (Table 20, symbol J); type: in vivo, blackgrass (Alopecurus myosuroides); conditions: 320 g/ha
Summary of the method: as §1

[12] = tested on: green foxtail; assay: Test Example 4: herbicidal effect by soil treatment (Table 19, symbol G); type: in vivo, green foxtail (Setaria viridis); conditions: 320 g/ha
Summary of the method: as §2

[13] = tested on: wild oat; assay: Test Example 5: herbicidal effect by foliage application, plastic box (Table 20, symbol I); type: in vivo, wild oat (Avena fatua); conditions: 320 g/ha
Summary of the method: as §1

[14] = tested on: barnyard grass; assay: Test Example 4: herbicidal effect by soil treatment (Table 19, symbol H); type: in vivo, barnyard grass (Echinochloa crus-galli); conditions: 320 g/ha
Summary of the method: as §2

[15] = tested on: windgrass; assay: Test Example 5: herbicidal effect by foliage application, plastic box (Table 20, symbol L); type: in vivo, windgrass (Apera spica-venti); conditions: 320 g/ha
Summary of the method: as §1

[16] = tested on: persian speedwell; assay: Test Example 5: herbicidal effect by foliage application, plastic box (Table 20, symbol R); type: in vivo, Persian speedwell (Veronica persica); conditions: 320 g/ha
Summary of the method: as §1

[17] = tested on: southern crabgrass; assay: Test Example 4: herbicidal effect by soil treatment (Table 19, symbol F); type: in vivo, southern crabgrass (Digitaria ciliaris); conditions: 320 g/ha
Summary of the method: as §2

[18] = tested on: barnyard grass; assay: Test Example 5: herbicidal effect by foliage application, plastic box (Table 20, symbol H); type: in vivo, barnyard grass (Echinochloa crus-galli); conditions: 320 g/ha
Summary of the method: as §1

[19] = tested on: lambsquarters; assay: Test Example 4: herbicidal effect by soil treatment (Table 19, symbol O); type: in vivo, lambsquarters (Chenopodium album); conditions: 320 g/ha
Summary of the method: as §2

[20] = tested on: oval-leafed pondweed; assay: Test Example 2: herbicidal activity, application during weed generation under submerged conditions (Table 17, symbol C); type: in vivo, oval-leafed pondweed (Monochoria vaginalis); conditions: AAH 320 g/ha; application during weed generation, submerged conditions
Summary of the method: as §3

[21] = tested on: wild oat; assay: Test Example 4: herbicidal effect by soil treatment (Table 19, symbol I); type: in vivo, wild oat (Avena fatua); conditions: 320 g/ha
Summary of the method: as §2

[22] = tested on: Italian ryegrass; assay: Test Example 4: herbicidal effect by soil treatment (Table 19, symbol K); type: in vivo, Italian ryegrass (Lolium multiflorum); conditions: 320 g/ha
Summary of the method: as §2

[23] = tested on: Italian ryegrass; assay: Test Example 5: herbicidal effect by foliage application, plastic box (Table 20, symbol K); type: in vivo, Italian ryegrass (Lolium multiflorum); conditions: 320 g/ha
Summary of the method: as §1

[24] = tested on: barnyard grass; assay: Test Example 3: herbicidal effect by foliage application, Wagner pot (Table 18, symbol H); type: in vivo, barnyard grass (Echinochloa crus-galli); conditions: 320 g/ha
Summary of the method: as §4

[25] = tested on: green foxtail; assay: Test Example 5: herbicidal effect by foliage application, plastic box (Table 20, symbol G); type: in vivo, green foxtail (Setaria viridis); conditions: 320 g/ha
Summary of the method: as §1

[26] = tested on: rice flat sedge; assay: Test Example 3: herbicidal effect by foliage application, Wagner pot (Table 18, symbol E); type: in vivo, rice flat sedge (Cyperus iria); conditions: 320 g/ha
Summary of the method: as §4

[27] = tested on: windgrass; assay: Test Example 4: herbicidal effect by soil treatment (Table 19, symbol L); type: in vivo, windgrass (Apera spica-venti); conditions: 320 g/ha
Summary of the method: as §2

[28] = tested on: velvetleaf; assay: Test Example 4: herbicidal effect by soil treatment (Table 19, symbol M); type: in vivo, velvetleaf (Abutilon theophrasti); conditions: 320 g/ha
Summary of the method: as §2

[29] = tested on: redroot pigweed; assay: Test Example 5: herbicidal effect by foliage application, plastic box (Table 20, symbol N); type: in vivo, redroot pigweed (Amaranthus retroflexus); conditions: 320 g/ha, foliage application after 14-day growth, evaluated three weeks after application
Summary of the method: as §1

[30] = tested on: chickweed; assay: Test Example 5: herbicidal effect by foliage application, plastic box (Table 20, symbol P); type: in vivo, common chickweed (Stellaria media); conditions: 320 g/ha, foliage application after 14-day growth, evaluated three weeks after application
Summary of the method: as §1

[31] = foliage application, 3 weeks after application
[32] = foliage application after 14-day growth, evaluated three weeks after application

## CCCC(=O)Oc1c(C)nn(C)c(=O)c1-c1c(-c2ccc(C(F)(F)F)cc2)sc2ccc(F)cc12 [2-021]
[1]; [31]
  effect on velvetleaf (M): 5 (Herbicidal rate of 90% or more (almost completely withered))
[2]
  herbicidal effect rating, R: persian speedwell: 5 (Herbicidal rate of 90% or more (almost completely withered))
[3]
  herbicidal effect rating, A: late watergrass: 0 (Herbicidal rate of 5% or less (almost no effect))
[4]; [31]
  effect on southern crabgrass (F): 4 (Herbicidal rate of 70% or more and less than 90%)
[5]; [31]
  effect on lambsquarters (O): 5 (Herbicidal rate of 90% or more (almost completely withered))
[6]
  herbicidal effect rating, J: blackgrass: 0 (Herbicidal rate of 5% or less (almost no effect))
[7]
  herbicidal effect rating, B: Japanese bulrush: 2 (Herbicidal rate of 20% or more and less than 40%)
[8]
  herbicidal effect rating, N: redroot pigweed: 5 (Herbicidal rate of 90% or more (almost completely withered))
[9]
  herbicidal effect on D (Chinese sprangletop), rating 0-5: 3 (Herbicidal rate of 40% or more and less than 70%)
[10]
  herbicidal effect rating, P: chickweed: 5 (Herbicidal rate of 90% or more (almost completely withered))
[11]; [31]
  effect on blackgrass (J): 3 (Herbicidal rate of 40% or more and less than 70%)
[12]
  herbicidal effect rating, G: green foxtail: 5 (Herbicidal rate of 90% or more (almost completely withered))
[13]; [31]
  effect on wild oat (I): 5 (Herbicidal rate of 90% or more (almost completely withered))
[14]
  herbicidal effect rating, H: barnyard grass: 4 (Herbicidal rate of 70% or more and less than 90%)
[15]; [31]
  effect on windgrass (L): 5 (Herbicidal rate of 90% or more (almost completely withered))
[16]; [31]
  effect on persian speedwell (R): 5 (Herbicidal rate of 90% or more (almost completely withered))
[17]
  herbicidal effect rating, F: southern crabgrass: 5 (Herbicidal rate of 90% or more (almost completely withered))
[18]; [31]
  effect on barnyard grass (H): 5 (Herbicidal rate of 90% or more (almost completely withered))
[19]
  herbicidal effect rating, O: lambsquarters: 5 (Herbicidal rate of 90% or more (almost completely withered))
[20]
  herbicidal effect rating, C: oval-leafed pondweed: 0 (Herbicidal rate of 5% or less (almost no effect))
[21]
  herbicidal effect rating, I: wild oat: 0 (Herbicidal rate of 5% or less (almost no effect))
[22]
  herbicidal effect rating, K: Italian ryegrass: 5 (Herbicidal rate of 90% or more (almost completely withered))
[23]; [31]
  effect on Italian ryegrass (K): 5 (Herbicidal rate of 90% or more (almost completely withered))
[24]
  herbicidal effect on H (barnyard grass), rating 0-5: 5 (Herbicidal rate of 90% or more (almost completely withered))
[25]; [31]
  effect on green foxtail (G): 5 (Herbicidal rate of 90% or more (almost completely withered))
[26]
  herbicidal effect on E (rice flat sedge), rating 0-5: 5 (Herbicidal rate of 90% or more (almost completely withered))
[27]
  herbicidal effect rating, L: windgrass: 5 (Herbicidal rate of 90% or more (almost completely withered))
[28]
  herbicidal effect rating, M: velvetleaf: 4 (Herbicidal rate of 70% or more and less than 90%)

## CCCC(=O)Oc1c(C)nn(C)c(=O)c1-c1c(-c2ccc(Cl)cc2)sc2c(Cl)cccc12 [4-018]
[1]; [32]
  herbicidal effect on M: velvetleaf (evaluation grade 0-5): 4 (Herbicidal rate of 70% or more and less than 90%)
[29]
  herbicidal effect on N: redroot pigweed (evaluation grade 0-5): 3 (Herbicidal rate of 40% or more and less than 70%)
[3]
  herbicidal effect rating, A: late watergrass: 0 (Herbicidal rate of 5% or less (almost no effect))
[4]; [32]
  herbicidal effect on F: southern crabgrass (evaluation grade 0-5): 0 (Herbicidal rate of 5% or less (almost no effect))
[5]; [32]
  herbicidal effect on O: lambsquarters (evaluation grade 0-5): 0 (Herbicidal rate of 5% or less (almost no effect))
[7]
  herbicidal effect rating, B: Japanese bulrush: 3 (Herbicidal rate of 40% or more and less than 70%)
[9]
  herbicidal effect on Chinese sprangletop (D): 4 (Herbicidal rate of 70% or more and less than 90%)
[11]; [32]
  herbicidal effect on J: blackgrass (evaluation grade 0-5): 4 (Herbicidal rate of 70% or more and less than 90%)
[30]
  herbicidal effect on P: chickweed (evaluation grade 0-5): 5 (Herbicidal rate of 90% or more (almost completely withered))
[13]; [32]
  herbicidal effect on I: wild oat (evaluation grade 0-5): 3 (Herbicidal rate of 40% or more and less than 70%)
[15]; [32]
  herbicidal effect on L: windgrass (evaluation grade 0-5): 5 (Herbicidal rate of 90% or more (almost completely withered))
[16]; [32]
  herbicidal effect on R: persian speedwell (evaluation grade 0-5): 4 (Herbicidal rate of 70% or more and less than 90%)
[18]; [32]
  herbicidal effect on H: barnyard grass (evaluation grade 0-5): 0 (Herbicidal rate of 5% or less (almost no effect))
[20]
  herbicidal effect rating, C: oval-leafed pondweed: 3 (Herbicidal rate of 40% or more and less than 70%)
[23]; [32]
  herbicidal effect on K: Italian ryegrass (evaluation grade 0-5): 3 (Herbicidal rate of 40% or more and less than 70%)
[24]
  herbicidal effect on barnyard grass (H): 4 (Herbicidal rate of 70% or more and less than 90%)
[25]; [32]
  herbicidal effect on G: green foxtail (evaluation grade 0-5): 0 (Herbicidal rate of 5% or less (almost no effect))
[26]
  herbicidal effect on rice flat sedge (E): 3 (Herbicidal rate of 40% or more and less than 70%)
